Earlier results on 1 substance are cited in patent publication US6072029A, “Derivatives of human α1 -antitrypsin and process for their preparation” (priority 1984, dated 2000).

Read-outs that look alike come from different tables or passages of the source.

The test system of the series is thrombin.

Turning to “α1 -AT: natural human α1-antitrypsin, serine protease inhibitor”, the inactivation of thrombin entry reads like this: (increasing molar excess of α1-antitrypsin) “completely inhibited”; (molar ratio of 1:1) “weak and incomplete”.
